Structures are written as SMILES. Read-outs that look alike come from different tables or passages of the source.

The target in one data set is T1, PPARα (Homo sapiens, UniProt Q07869).
T1 construct: hPPARα (279aa-580aa); expressed in transfected cells; host or cells: Cos-7
T1 sequence (Q07869 167-468 limits assumed): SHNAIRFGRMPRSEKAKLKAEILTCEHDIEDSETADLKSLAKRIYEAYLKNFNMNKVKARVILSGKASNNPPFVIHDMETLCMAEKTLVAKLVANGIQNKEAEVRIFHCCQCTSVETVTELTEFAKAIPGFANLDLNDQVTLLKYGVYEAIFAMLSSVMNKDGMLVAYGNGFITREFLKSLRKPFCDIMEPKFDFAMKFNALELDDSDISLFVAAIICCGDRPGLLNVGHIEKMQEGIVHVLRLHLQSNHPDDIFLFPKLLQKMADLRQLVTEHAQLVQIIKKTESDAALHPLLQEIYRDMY
In words: Gal4-PPARα(LBD) reporter gene agonistic activity assay in Cos-7 cells. The class given is cell-based. For orientation: A reporter such as luciferase makes a cellular process visible.

Data set [1] in a line: Pharmacokinetic evaluation in mice. Conditions: for AUC(0-inf): read-out: Area under the curve AUC(0-∞); for half-life: read-out: Half-life T1/2 (converted); for Cmax: read-out: Peak concentration Cmax; for Tmax: read-out: Time-to-peak Tmax. The class given is in vivo, C57BL/6J mice. The text has this: Animals: 6 male C57BL/6J mice, SPF grade, sourced from the animal repository of Shanghai Medicilon research institution.
Grouping: Mice were divided into 2 groups of 3 mice each, one group was an oral administration group and the other group was an intravenous injection administration group. The dose in the oral administration group was 10 mpk, and the dose in the intravenous injection group was 2 mpk.
Experimental method: After the intravenous injection administration group was subjected to administration by injection via the tail vein, approximately 0.03 mL of blood was collected via the orbit at 0.083 h, 0.25 h, 0.5 h, 1 h, 2 h, 4 h, 8 h, and 24 h, and an ethylenediaminetetraacetic acid dipotassium salt was quickly added for anticoagulation and the blood was placed on ice after the blood collection. The mice in the oral administration group were fasted for 12 h before administration and fed 4 h after administration; after oral administration, approximately 0.03 mL of blood was collected via the orbit at 0.25 h, 0.5 h, 1 h, 2 h, 4 h, 6 h, 8 h, and 24 h, and an ethylenediaminetetraacetic acid dipotassium salt was quickly added for anticoagulation and the blood was placed on ice after the blood collection. All samples were centrifuged at 18,000 g for 7 min in a low-temperature centrifuge, and plasma was isolated. The content of the compound in the plasma was determined by LC-MS/MS-18, and relevant pharmacokinetic parameters were calculated from the plasma concentration data at different time points.

A short description of data set [2]: Metabolic stability in human liver microsomes. Format: in vitro ADME. How it is done: A 500 μM solution of the compound in acetonitrile was prepared and diluted to obtain a 1.5 μM drug working solution with a 0.1 M potassium phosphate solution. The drug working solution was co-incubated with a human liver microsome working solution at a final concentration of 0.75 mg/mL and an NADPH solution (final concentration: 550 μM), and the incubation was terminated by adding an acetonitrile solution at 0 min, 15 min, 30 min, 45 min, and 60 min. The residual amount of the compound that remained in the system at each time point was detected by using LC/MS. The absolute value k of the slope was determined by plotting the natural logarithm of the percentage of the residual amount of the compound with the time, and the calculation was performed according to the formula: T1/2 (half-life)=ln2/k=0.693/k.

A further data set has as its target T2, PPARδ (Homo sapiens, UniProt Q03181).
T2 construct: expressed in transfected cells; host or cells: Cos-7
T2 sequence (Q03181 139-441 limits assumed): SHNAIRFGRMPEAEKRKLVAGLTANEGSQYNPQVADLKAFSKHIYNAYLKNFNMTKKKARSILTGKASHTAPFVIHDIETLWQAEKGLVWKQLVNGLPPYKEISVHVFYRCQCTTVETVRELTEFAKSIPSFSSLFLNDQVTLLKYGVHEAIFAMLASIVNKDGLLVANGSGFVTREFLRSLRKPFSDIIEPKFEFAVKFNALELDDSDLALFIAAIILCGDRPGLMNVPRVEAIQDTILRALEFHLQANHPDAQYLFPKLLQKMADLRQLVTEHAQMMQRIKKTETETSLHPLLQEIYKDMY
Nature of the data set: Gal4-PPARδ(LBD) reporter gene agonistic activity assay in Cos-7 cells. The class given is cell-based.

Another data set relates to HepG2 cells. Nature of the data set: Lipid metabolism-associated gene expression of HepG2 cells (qPCR). Format: cell-based, human. Conditions: 8 nM, nM, and 200 nM, 12 h, vs. blank control (FIGS. 1 and 2). The protocol: HepG2 cells (human hepatoma cells) were cultured in a 6-well cell culture plate and subjected to adherent culture overnight. […] The old medium was discarded and replaced with drug-containing medium of different concentrations (complete medium without the compound for the blank control group). After dosing, the cells were incubated for 12 h. The medium was discarded and total RNA was extracted by the phenol-chloroform method. After reverse transcription, the real-time quantitative fluorescent PCR experiment (RNA extraction, reverse transcription, quantitative PCR reagents were all purchased from Nanjing Vazyme Biotech Co., Ltd.) was performed using ACTB as an internal reference, and the expression of PDK4, ACADVL, and CPT1A, which are important genes in oxidative metabolism of lipids, was detected according to the steps in the product instructions (the primer sequences are shown in Table 7). […] Some other compounds of the present invention also have similar activity.
(In general: Quantitative PCR measures a nucleic acid by following its amplification.)

The test system of another data set is THP1 cells. Nature of the data set: LPS-induced inflammation-associated gene expression of THP1 cells (qPCR). Format: cell-based, human. The settings on record: THP1 monocyte-derived macrophages, 8, 40, and 200 nM, 6 h, qPCR (FIG. 3). How it is done: THP1 cells (human monocytes) were cultured in a 6-well cell culture plate in a medium containing 100 ng/mL phorbol ester (purchased from MCE) and stimulated for differentiation for 48 h.
The medium was replaced with a fresh complete medium for the blank control group, the medium was replaced with a complete medium containing […] LPS for the LPS group, and the medium was replaced with 8, 40, and 200 nM drug-containing media prepared with a complete medium containing […] LPS for the administration group. After 6 h of treatment, the medium was discarded. Quantitative PCR was performed according to the procedures in Example 207 to detect the expression of IL6 and IL12B, which are inflammatory factors playing an important role in inflammatory response (the primer sequences are shown in Table 8). […] Some other compounds of the present invention also have similar anti-inflammatory activity.

Setting [3] is: male, C57BL/6J, mouse, plasma, 2 mg/kg, intravenous injection, 2 mpk.
The mark [4] stands for this setting: male, C57BL/6J, mouse, plasma, 10 mg/kg, oral administration, 10 mpk.

As a reminder, the EC50 is the concentration giving half of the maximal effect. The term Tmax denotes the time from dosing to the highest level. One may read the bioavailability as the share of a dose that reaches the circulation, judged against a reference dose that is usually intravenous. At PPARα (Cos-7 cells, Gal4-PPARα(LBD) reporter, 16 h, 100% = GW7647 10 nM), `Cc1cc(Cn2ncn(-c3ccc(C(F)(F)F)cc3)c2=O)cc(C)c1OC(C)(C)C(=O)O` [Compound 57, 2-(2,6-Dimethyl-4-((5-oxo-4-(4-(trifluoromethyl)phenyl)-4,5-dihydro-1H-1,2,4-triazol-1-yl)methyl)phenoxy)-2-methylpropionic acid] registered an EC50 of 26 nM. For the same compound, the “agonistic activity for PPARα (EC50 level, in words)” value on PPARα (Cos-7 reporter assay) is recorded as “at nanomolar levels”. For the same compound, the “pharmacokinetic properties (in words)” value in data set [1] is given as “good pharmacokinetic properties”. Further, in data set [1] (setting [3]), the AUC(0-inf) was 4360 ± 522 ng·h/mL, the half-life was 9.53 ± 3.29 h, the Cmax was 7240 ± 269 ng/mL and the Tmax was 0.08 h. Further, in data set [1] (setting [4]), the AUC(0-inf) amounted to 18600 ± 2760 ng·h/mL, the half-life is 7.41 ± 2.05 h, the Cmax was found to be 14000 ± 2050 ng/mL and the Tmax was determined as 0.25 h. The bioavailability in data set [1] (male, C57BL/6J, mouse, plasma, 10 mg/kg, oral administration, 10 mpk, read-out: Bioavailability F) came out at 87.3%. Further, the “metabolic stability in human liver microsomes (in words)” value in data set [2] (human liver microsomes) is listed as “very good metabolic stability in human liver microsomes”. This compound also registered a half-life in data set [2] (human liver microsomes 0.75 mg/mL, NADPH, 0-60 min) greater than 2 h. The EC50 at PPARδ worked out at 2 nM. At PPARδ (Cos-7 reporter assay), the “agonistic activity for PPARδ (EC50 level, in words)” value is reported as “at nanomolar levels”. Further, in the data set on HepG2 cells, the “expression of PDK4, ACADVL, and CPT1A” value was “improve the expression of PDK4, ACADVL, and CPT1A in a dose-dependent manner with significance”. Moreover, the “LPS-induced expression of IL6 and IL12B” value in the data set on THP1 cells is “resist LPS-induced up-regulation of IL6 and IL12B of macrophages”.

The values above are taken from patent US20250188044A1 (HARBIN MEDISAN PHARMACEUTICAL CO., LTD., priority 2021, published 2025).
